Source: patent publication US20110009435A1, “HETERO BICYCLIC CARBOXAMIDE DERIVATIVES AND THEIR PHARMACEUTICAL USE AND COMPOSITIONS” (Pfizer, Inc., priority 2007, published 2011)

Columns and labels:
Format in all cases: biochemical
[1] = target: T1, catalytic domain of human recombinant MMP-3 (Homo sapiens, UniProt P08254); test: In vitro MMP inhibition assay, MMP-3 catalytic domain (fluorogenic peptide substrate cleavage, Ki); settings: human MMP-3, catalytic domain (CD); read-out: hMMP Ki 03/CD
T1 construct: made in house
T1 sequence (P08254 100-272 limits assumed): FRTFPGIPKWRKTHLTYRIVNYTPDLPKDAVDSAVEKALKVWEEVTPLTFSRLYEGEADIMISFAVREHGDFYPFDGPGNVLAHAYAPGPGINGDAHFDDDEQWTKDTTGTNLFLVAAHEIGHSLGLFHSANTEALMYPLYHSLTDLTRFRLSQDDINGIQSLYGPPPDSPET
Experimental: (§1) Matrix Metalloproteinase inhibitor compounds were analyzed in in vitro MMP Inhibition assays to determine their ability to inhibit the MMP cleavage of peptide substrates. Inhibition constants (Ki) were calculated from the assayed compound-MMP interactions.
(§2) Human recombinant MMP-1, MMP-2, MMP-3, MMP-7, MMP-9, MMP-12, MMP-13, MMP-14 and MMP-15 were used in these assays. The enzymes are prepared following known laboratory procedures. Protocols for the preparation and use of these enzymes are available in the scientific literature. See, e.g., Enzyme Nomenclature (Academic Press, San Diego, Calif., 1992) and the citations therein. See also Frije et al., J. Biol. Chem., 26(24), 16766-73 (1994).
The catalytic domain MMP-3 cDNA may be used to express the catalytic domain enzyme in E. coli inclusion bodies. Then the enzyme is solubilized in urea, purified on a preparative […] reverse phase HPLC column, and refolded in the presence of zinc acetate and purified for use.
The fluorogenic, methoxycoumarin-containing polypeptide substrate Mca-Arg-Pro-Lys-Pro-Val-Glu-Nva-Trp-Arg-Lys(Dnp)-NH2 (Bachem catalog number M-2110) was used as the MMP substrate in the MMP inhibition assays for catalytic domain of human recombinant MMP-3 (which refers to the catalytic domain of stromelysin). Here, “MCA” is 7-methoxycoumarin-4-yl acetyl and “Dpa” is 3-(2,4-dinitrophenyl)-L-2,3-di-aminopropionyl group. In the absence of MMP inhibitory activity, the substrate is cleaved at the Gly-Leu peptide bond. The cleavage separates the highly fluorogenic peptide from the 2,4-dinitrophenyl quencher, resulting in an increase of fluorescent intensity.
For the human MMP-3 assay, dilutions of the inhibitors (or salts thereof) were prepared in 100% DMSO. The stock solutions were diluted in Buffer B (50 mM N-morpholinoethane sulfonate (“MES”), 100 mM NaCl, 10 mM CaCl2, 0.005% polyoxyethylene 23 lauryl ether, pH 6.0)) to obtain solutions with different compound concentrations, i.e., assay solutions with different concentrations of the assayed MMP inhibitory compound in 1% DMSO. The experiment controls contained the same amount of Buffer B/DMSO as the assayed sample, but contained no inhibitor.
(§3) To determine Ki, the inhibitor samples are incubated at room temperature for 1 hr in the presence of enzyme and then 4 μM of appropriate MMP substrate was added, and samples were analyzed on a Tecan SpectraFlour Plus plate reader. The excitation wavelength is 330 nm, and the emission (fluorescence) wavelength is 420 nm. In the absence of MMP inhibitory activity, the substrate is cleaved at the Gly-Leu bond resulting in an increase of relative fluorescence. Inhibition is observed as a reduced rate of increase in relative fluorescence.
(§4) The inhibitors are analyzed using a single low enzyme concentration with a single substrate concentration fixed at or below the Km. This protocol is a modification of method by Knight et al., FEBS Lett., 296(3), 263-266 (1992). Apparent inhibitory constants are determined by non-linear regression of reaction velocity as a function of inhibitor and enzyme concentration using Morrison's equation, as described by Kuzmic, Anal. Biochem. 286, 45-50 (2000). Modifications were made in the non-linear regression method to allow a common control reaction rate and effective enzyme concentration to be shared between all dose-response relationships on a given assay plate. Since the substrate concentration was chosen to be at or below the Km, the apparent Ki's from this analysis were reported as Ki's without correction for the influence of substrate.

[2] = target: T2, Human recombinant MMP-12 (Homo sapiens, UniProt P39900); test: In vitro MMP inhibition assay, MMP-12 catalytic domain (fluorogenic peptide substrate cleavage, Ki); settings: human MMP-12, catalytic domain (CD); read-out: hMMP Ki 12/CD
T2 construct: The catalytic domain of MMP-12 and MMP-15 enzymes were purchased commercially for these assays; purchased
T2 sequence (P39900 106-263 limits assumed): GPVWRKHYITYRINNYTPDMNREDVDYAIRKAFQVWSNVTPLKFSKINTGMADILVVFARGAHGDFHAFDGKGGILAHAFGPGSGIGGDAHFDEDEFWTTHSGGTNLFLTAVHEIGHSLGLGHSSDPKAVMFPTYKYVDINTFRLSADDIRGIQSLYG
Experimental: as §1, §2
(§5) The catalytic domain of MMP-12 and MMP-15 enzymes were purchased commercially for these assays.
(§6) The fluorogenic, methoxycoumarin-containing polypeptide substrate MCA-ArgProLeuGlyLeuDpaAlaArgGluArgNH2 was used as the MMP substrate in the MMP inhibition assays for human recombinant MMP-1, MMP-2, MMP-7, MMP-9, MMP-12, MMP-13, MMP-14 and MMP-15. Here, “MCA” is 7-methoxycoumarin-4-yl acetyl and “Dpa” is 3-(2,4-dinitrophenyl)-L-2,3-di-aminopropionyl group. In the absence of MMP inhibitory activity, the substrate is cleaved at the Gly-Leu peptide bond. The cleavage separates the highly fluorogenic peptide from the 2,4-dinitrophenyl quencher, resulting in an increase of fluorescent intensity.
(§7) For the human MMP-1, MMP-2, MMP-7, MMP-9, MMP-12, MMP-13, MMP-14 and MMP-15 assays, dilutions of the inhibitors (or salts thereof) were prepared in 100% dimethyl sulfoxide (DMSO). The stock solutions were diluted in Buffer A (100 mM Tris-HCl, 100 mM NaCl, 10 mM CaCl2, 0.005% polyoxyethylene 23 lauryl ether, pH 7.5) to obtain solutions with different compound concentrations, i.e., assay solutions with different concentrations of the assayed MMP inhibitory compound in 1% DMSO. The experiment controls contained the same amount of Buffer A/DMSO as the assayed sample, but contained no inhibitor.
as §3, §4

[3] = target: T3, Human recombinant MMP-13 (Homo sapiens, UniProt P45452); test: In vitro MMP inhibition assay, MMP-13 (fluorogenic peptide substrate cleavage, Ki); settings: human MMP-13, full length (FL); read-out: hMMP Ki 13/FL
T3 construct: made in house; host or cells: baculovirus expression (insect cells)
Experimental: as §1, §2
The MMP-13 may be obtained as a proenzyme from a full-length cDNA clone using baculovirus expression, as described by V. A. Luckow, “Insect Cell Expression Technology,” Protein Engineering: Principles and Practice, pp. 183-218 (edited by J. L. Cleland et al., Wiley-Liss, Inc., 1996). The expressed proenzyme was first purified over a heparin agarose column, and then over a chelating zinc chloride column. Further details on baculovirus expression systems may be found in, for example, Luckow et al., J. Virol., 67, 4566-79 (1993). See also O'Reilly et al, Baculovirus Expression Vectors: A Laboratory Manual (W. H. Freeman and Co., New York, N.Y., 1992). See also King et al., The Baculovirus Expression System: A Laboratory Guide (Chapman & Hall, London, England, 1992).
All full length MMPs were activated using 4-aminophenylmercuric acetate (“APMA”, Sigma Chemical, St. Louis, Mo.) or trypsin. MMP-9 also was activated using human recombinant MMP-3 following standard cloning and purification techniques.
as §6, §7, §3
The inhibitors are analyzed using a single low enzyme concentration with a single substrate concentration fixed at or below the Km. This protocol is a modification of method by Knight et al., FEBS Lett., 296(3), 263-266 (1992). Apparent inhibitory constants are determined by non-linear regression of reaction velocity as a function of inhibitor and enzyme concentration using Morrison's equation, as described by Kuzmic, Anal. Biochem. 286, 45-50 (2000). […]

[4] = target: T4, Human recombinant MMP-14 (Homo sapiens, UniProt P50281); test: In vitro MMP inhibition assay, MMP-14 catalytic domain (fluorogenic peptide substrate cleavage, Ki); settings: human MMP-14, catalytic domain (CD); read-out: hMMP Ki 14/CD
T4 construct: The MMP-14 cDNA may be used to express the catalytic domain enzyme in E. coli inclusion bodies; made in house
Experimental: as §1, §2
The MMP-14 cDNA may be used to express the catalytic domain enzyme in E. coli inclusion bodies. Then the enzyme is solubilized in urea, purified on a preparative […] reverse phase HPLC column, and refolded in the presence of zinc acetate and purified for use.
as §6, §7, §3
as §4, with “Since the substrate concentration was chosen to be at or below the Km, the apparent Ki's from this analysis were reported as Ki's without correction for the influence of substrate.” left out

[5] = target: T5, Human recombinant MMP-15 (Homo sapiens, UniProt P51511); test: In vitro MMP inhibition assay, MMP-15 catalytic domain (fluorogenic peptide substrate cleavage, Ki); settings: human MMP-15, catalytic domain (CD); read-out: hMMP Ki 15/CD
T5 construct: The catalytic domain of MMP-12 and MMP-15 enzymes were purchased commercially for these assays; purchased
T5 sequence (P51511 132-304 limits assumed): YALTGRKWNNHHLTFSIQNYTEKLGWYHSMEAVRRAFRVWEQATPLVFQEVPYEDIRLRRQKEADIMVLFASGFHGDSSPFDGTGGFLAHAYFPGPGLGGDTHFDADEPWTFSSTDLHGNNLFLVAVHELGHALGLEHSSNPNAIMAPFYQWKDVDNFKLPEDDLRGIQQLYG
Experimental: as §1, §2, §5, §6, §7, §3, §4

Ki [1] [nM] | Ki [2] [µM] | Ki [3] [nM] | Ki [4] [µM] | Ki [5] [µM] | SMILES
1640 | > 10 | 11.4 | > 10 | > 10 | COc1cccc(CNC(=O)c2nc3scc(COC[C@@H]4CO[C@@H](CO)CO4)c3c(=O)[nH]2)c1 (relative stereo) [Example 7, N-(3-Methoxybenzyl)-5-(((trans-5-(hydroxymethyl)-1,4-dioxan-2-yl)methoxy)methyl)-4-oxo-3,4-dihydrothieno[2,3-d]pyrimidine-2-carboxamide]
1350 | > 10 | 0.88 | > 10 | > 10 | COc1cc(CNC(=O)c2nc3scc(COC[C@H]4CC[C@H](CO)CC4)c3c(=O)[nH]2)ccc1F [Example 9, N-(4-Fluoro-3-methoxybenzyl)-5-(((trans-4-(hydroxymethyl)cyclohexyl)methoxy)methyl)-4-oxo-3,4-dihydrothieno[2,3-d]pyrimidine-2-carboxamide]
656 |  | 1.62 |  |  | COc1cccc(CNC(=O)c2nc3scc(COC[C@H]4CC[C@H](NC(C)=O)CC4)c3c(=O)[nH]2)c1 [Example 17, 5-({[trans-4-(Acetylamino)cyclohexyl]methoxy}methyl)-N-(3-methoxybenzyl)-4-oxo-3,4-dihydrothieno[2,3-d]pyrimidine-2-carboxamide]
672 |  | 1.25 |  |  | COc1cccc(CNC(=O)c2nc3scc(COC[C@H]4CC[C@H](NC(=O)CO)CC4)c3c(=O)[nH]2)c1 [Example 21, N-(3-Methoxybenzyl)-5-((((trans-1,4)-4-(2-hydroxyacetamido)cyclohexyl)methoxy)methyl)-4-oxo-3,4-dihydrothieno[2,3-d]pyrimidine-2-carboxamide]
453 |  | 0.582 |  |  | COc1cc(CNC(=O)c2nc3scc(COC[C@H]4CC[C@H](NC(=O)CO)CC4)c3c(=O)[nH]2)ccc1F [Example 23, N-(4-Fluoro-3-methoxybenzyl)-5-((((trans-1,4)-4-(2-hydroxyacetamido)cyclohexyl)methoxy)methyl)-4-oxo-3,4-dihydrothieno[2,3-d]pyrimidine-2-carboxamide]
512 |  | 0.566 |  |  | COc1cccc(CNC(=O)c2nc3scc(COC[C@H]4CC[C@H](CNS(C)(=O)=O)CC4)c3c(=O)[nH]2)c1 [Example 25, N-(3-methoxybenzyl)-5-[({trans-4-[(methylsulfonyl)aminomethyl]cyclohexyl}methoxy)methyl]-4-oxo-3,4-dihydrothieno[2,3-d]pyrimidine-2-carboxamide]
779 |  | 1.78 |  |  | COc1cccc(CNC(=O)c2nc3scc(COCCC4CCN(S(C)(=O)=O)CC4)c3c(=O)[nH]2)c1 [Example 27, N-(3-methoxybenzyl)-5-({2-[1-(methylsulfonyl)piperidin-4-yl]ethoxy}methyl)-4-oxo-3,4-dihydrothieno[2,3-d]pyrimidine-2-carboxamide]
787 |  | 3.13 |  |  | COc1cccc(CNC(=O)c2nc3scc(COCCC4CCN(C(C)=O)CC4)c3c(=O)[nH]2)c1 [Example 28, 5-([2-(1-Acetylpiperidin-4-yl)ethoxy]methyl)-N-(3-methoxybenzyl)-4-oxo-3,4-dihydrothieno[2,3-d]pyrimidine-2-carboxamide]
1600 |  | 0.374 |  |  | COc1cccc(CNC(=O)c2nc3ccc(F)c(OC[C@H]4CC[C@H](CO)CC4)c3c(=O)[nH]2)c1 [Example 29, 6-fluoro-5-{[trans-4-(hydroxymethyl)cyclohexyl]methoxy}-N-(3-methoxybenzyl)-4-oxo-3,4-dihydroquinazoline-2-carboxamide]
9420 |  | 1.91 |  |  | COc1cccc(CNC(=O)c2nc3ccc(F)c(OCCC4CCNCC4)c3c(=O)[nH]2)c1 [Example 30, 6-fluoro-N-(3-methoxybenzyl)-4-oxo-5-(2-piperidin-4-ylethoxy)-3,4-dihydroquinazoline-2-carboxamide]
1280 |  | 0.085 |  |  | COc1cccc(CNC(=O)c2nc3ccc(F)c(OCCC4CCN(S(C)(=O)=O)CC4)c3c(=O)[nH]2)c1 [Example 31, 6-fluoro-N-(3-methoxybenzyl)-5-{2-[1-(methylsulfonyl)piperidin-4-yl]ethoxy}-4-oxo-3,4-dihydroquinazoline-2-carboxamide]
1950 |  | 0.184 |  |  | COc1cccc(CNC(=O)c2nc3ccc(F)c(OCCC4CCN(C(C)=O)CC4)c3c(=O)[nH]2)c1 [Example 32, 5-[2-(1-acetylpiperidin-4-yl)ethoxy]-6-fluoro-N-(3-methoxybenzyl)-4-oxo-3,4-dihydroquinazoline-2-carboxamide]
5200 |  | 4.15 |  |  | COc1cccc(CNC(=O)c2nc3ccc(F)c(OCCC4CCN(CCO)CC4)c3c(=O)[nH]2)c1 [Example 35, 6-fluoro-5-{2-[1-(2-hydroxyethyl)piperidin-4-yl]ethoxy}-N-(3-methoxybenzyl)-4-oxo-3,4-dihydroquinazoline-2-carboxamide]
